Holding throughout (type): biochemical
Assay [1] deals with T1, complex I (NADH/ubiquinone oxidoreductase) (Escherichia coli, UniProt P0AFC7+P0AFD4+P31979+P33599).
T1 construct: gene nuoB; 13-subunit complex, about 550 kDa, NuoF His6-tagged (pBADnuo nuoFHis6) expressed in BW25113 delta-nuo delta-ndh; DDM-purified, in proteoliposomes or in membranes; with NADH-quinone oxidoreductase subunit A; NADH-quinone oxidoreductase subunit E; NADH-quinone oxidoreductase subunit G; NADH-quinone oxidoreductase subunit I; NADH-quinone oxidoreductase subunit J; NADH-quinone oxidoreductase subunit K; NADH-quinone oxidoreductase subunit L; NADH-quinone oxidoreductase subunit M; NADH-quinone oxidoreductase subunit N
In words: NADH absorbance at […] nm, proteoliposomes. As to conditions: 100 µM NADH, 60 µM decyl-ubiquinone, 5 mM MES/NaOH, 50 mM KCl, 2 mM MgCl2, pH 6.0, 30 °C.

The target of assay [2] is T2, ENC-spoT (encapsulin SpoT) (Escherichia coli, UniProt P0AG24).
T2 construct: N-terminal 6xHis tag, C-terminal 30-residue DyP-peroxidase cargo tag; co-expressed in E. coli BL21-AI inside Mycolicibacterium hassiacum encapsulin nanocage
In words: HPLC-UV ([…] nm) ppGpp hydrolysis. As to conditions: 1 mM ppGpp, 1 mM manganese, cytosolic buffer with 250 mM imidazole and 0.1% triton-X100, 25 °C, pH varied; enzyme encapsulated in nanocage.

The target of another assay is T3, 6His-SpoT (Escherichia coli, UniProt P0AG24).
T3 construct: full-length with N-terminal His tag (pETM11-SpoT), expressed in E. coli BL21 (DE3) pLysS, Ni-Sepharose purified
Nature of the assay: HPLC-UV ([…] nm) ppGpp hydrolysis. As to conditions: 1 mM ppGpp, 1 mM manganese, cytosolic buffer with 250 mM imidazole, 25 °C, pH varied; free enzyme.

T3 sequence (P0AG24 whole entry): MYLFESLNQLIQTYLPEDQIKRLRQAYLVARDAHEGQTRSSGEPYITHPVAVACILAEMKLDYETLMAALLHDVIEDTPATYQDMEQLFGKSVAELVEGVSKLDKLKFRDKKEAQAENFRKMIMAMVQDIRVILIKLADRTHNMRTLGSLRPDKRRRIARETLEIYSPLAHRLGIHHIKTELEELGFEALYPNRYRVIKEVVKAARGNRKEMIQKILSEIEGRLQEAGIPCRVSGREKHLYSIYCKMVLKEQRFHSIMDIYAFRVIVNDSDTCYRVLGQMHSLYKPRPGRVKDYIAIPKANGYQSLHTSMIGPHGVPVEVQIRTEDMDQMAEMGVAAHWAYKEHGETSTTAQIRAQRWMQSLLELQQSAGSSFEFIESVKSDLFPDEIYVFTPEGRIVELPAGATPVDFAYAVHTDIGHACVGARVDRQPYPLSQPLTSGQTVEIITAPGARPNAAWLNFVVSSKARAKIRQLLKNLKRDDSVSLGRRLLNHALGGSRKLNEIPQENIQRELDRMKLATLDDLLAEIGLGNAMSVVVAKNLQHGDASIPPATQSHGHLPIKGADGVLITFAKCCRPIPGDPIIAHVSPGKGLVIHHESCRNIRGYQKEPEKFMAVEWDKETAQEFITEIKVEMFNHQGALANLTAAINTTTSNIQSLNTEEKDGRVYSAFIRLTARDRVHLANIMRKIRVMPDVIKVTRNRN
T2 sequence (P0AG24 whole entry): as above

As for `NC(=O)C1=CN([C@@H]2O[C@H](COP(=O)(O)OP(=O)(O)OC[C@H]3O[C@@H](n4cnc5c(N)ncnc54)[C@H](O)[C@@H]3O)[C@@H](O)[C@H]2O)C=CC1` [NADH], in assay [1], the “NADH absorbance at 340 nm, proteoliposomes” value is “liposomes reconstituted with wild-type complex I and the variants oxidized NADH at a similar rate”. For `Nc1nc2c(ncn2[C@@H]2O[C@H](COP(=O)(O)OP(=O)(O)O)[C@@H](OP(=O)(O)OP(=O)(O)O)[C@H]2O)c(=O)[nH]1` [ppGpp], the “HPLC-UV (260 nm) ppGpp hydrolysis” value in assay [2] is “We used both the encapsulated SpoT and regularly purified SpoT”; at 6His-SpoT, “SpoT hydrolyzes ppGpp to GDP, and that manganese ions are necessary for hydrolysis”. As to `CCCCCCCCCCC1=C(C)C(=O)C(OC)=C(OC)C1=O` [decyl ubiquinone], the “NADH absorbance at 340 nm, proteoliposomes” value in assay [1] is “NADH/decyl ubiquinone oxidoreduction was followed by monitoring the decreasing NADH concentration”.

The values are drawn from article PMC8795404, “Mutations in respiratory complex I promote antibiotic persistence through alterations in intracellular acidity and protein synthesis” (Nature Communications, 2022).
